What was measured:
[1] = Decrease in leukocytes observed following reference intravenous doxorubicin at 1 mg.Kg-1 per week in rat; assay type: toxicity, organism-based, SD, Blood; parameters: dose 1 mg.Kg-1, dosed compound id 2.46809e+06, dosed compound name Doxorubicin, dose level High, gender Mixed, regimen Once per week, route intravenous, sampling time 36 Week, study doses 0/0.3/0.6/1 mg.Kg-1; conditions: in vivo
[2] = Excretion of radioactivity in urine following single intravenous 14C-epirubicin at 75 mg.m-2 dose in cancer patients; assay type: ADME, organism-based; parameters: dose 75 mg.m-2, dosed compound id 2.46808e+06, dosed compound name 14C-Epirubicin, regimen Single, sampling time 10 Day; conditions: human, in vivo, at 75 mg/m2
[3] = Excretion of radioactivity in faeces following single intravenous 14C-epirubicin at 75 mg.m-2 dose in cancer patients; assay type: ADME, organism-based, Feces; parameters: dose 75 mg.m-2, dosed compound id 2.46808e+06, dosed compound name 14C-Epirubicin, regimen Single, sampling time 10 Day; conditions: human, in vivo, at 75 mg/m2
[4] = (§1) Excretory balance of radioactivity in bile following intravenous 14C-epirubicin at 1 mg.Kg-1 dose in rat; assay type: ADME, organism-based, SD; parameters: dose 1 mg.Kg-1, dosed compound id 2.46808e+06, dosed compound name 14C-Epirubicin, route intravenous, sampling time 0-1 h; conditions: in vivo
[5] = as §1; assay type: ADME, organism-based, SD; parameters: dose 1 mg.Kg-1, dosed compound id 2.46808e+06, dosed compound name 14C-Epirubicin, route intravenous, sampling time 0-2 h; conditions: in vivo
[6] = as §1; assay type: ADME, organism-based, SD; parameters: dose 1 mg.Kg-1, dosed compound id 2.46808e+06, dosed compound name 14C-Epirubicin, route intravenous, sampling time 0-4 h; conditions: in vivo
[7] = as §1; assay type: ADME, organism-based, SD; parameters: dose 1 mg.Kg-1, dosed compound id 2.46808e+06, dosed compound name 14C-Epirubicin, route intravenous, sampling time 0-6 h; conditions: in vivo
[8] = as §1; assay type: ADME, organism-based, SD; parameters: dose 1 mg.Kg-1, dosed compound id 2.46808e+06, dosed compound name 14C-Epirubicin, route intravenous, sampling time 0-8 h; conditions: in vivo
[9] = as §1; assay type: ADME, organism-based, SD; parameters: dose 1 mg.Kg-1, dosed compound id 2.46808e+06, dosed compound name 14C-Epirubicin, route intravenous, sampling time 0-12 h; conditions: in vivo
[10] = as §1; assay type: ADME, organism-based, SD; parameters: dose 1 mg.Kg-1, dosed compound id 2.46808e+06, dosed compound name 14C-Epirubicin, route intravenous, sampling time 0-24 h; conditions: in vivo
[11] = as §1; assay type: ADME, organism-based, SD; parameters: dose 1 mg.Kg-1, dosed compound id 2.46808e+06, dosed compound name 14C-Epirubicin, route intravenous, sampling time 0-48 h; conditions: in vivo
[12] = (§2) Excretory balance of radioactivity in faeces following intravenous 14C-epirubicin at 1 mg.Kg-1 dose in rat; assay type: ADME, organism-based, SD, Feces; parameters: dose 1 mg.Kg-1, dosed compound id 2.46808e+06, dosed compound name 14C-Epirubicin, route intravenous, sampling time 0-1 h; conditions: in vivo
[13] = as §2; assay type: ADME, organism-based, SD, Feces; parameters: dose 1 mg.Kg-1, dosed compound id 2.46808e+06, dosed compound name 14C-Epirubicin, route intravenous, sampling time 0-2 h; conditions: in vivo
[14] = as §2; assay type: ADME, organism-based, SD, Feces; parameters: dose 1 mg.Kg-1, dosed compound id 2.46808e+06, dosed compound name 14C-Epirubicin, route intravenous, sampling time 0-4 h; conditions: in vivo
[15] = as §2; assay type: ADME, organism-based, SD, Feces; parameters: dose 1 mg.Kg-1, dosed compound id 2.46808e+06, dosed compound name 14C-Epirubicin, route intravenous, sampling time 0-6 h; conditions: in vivo
[16] = as §2; assay type: ADME, organism-based, SD, Feces; parameters: dose 1 mg.Kg-1, dosed compound id 2.46808e+06, dosed compound name 14C-Epirubicin, route intravenous, sampling time 0-8 h; conditions: in vivo
[17] = as §2; assay type: ADME, organism-based, SD, Feces; parameters: dose 1 mg.Kg-1, dosed compound id 2.46808e+06, dosed compound name 14C-Epirubicin, route intravenous, sampling time 0-12 h; conditions: in vivo
[18] = as §2; assay type: ADME, organism-based, SD, Feces; parameters: dose 1 mg.Kg-1, dosed compound id 2.46808e+06, dosed compound name 14C-Epirubicin, route intravenous, sampling time 0-48 h; conditions: in vivo
[19] = (§3) Excretory balance of radioactivity in urine following intravenous 14C-epirubicin at 1 mg.Kg-1 dose in rat; assay type: ADME, organism-based, SD; parameters: dose 1 mg.Kg-1, dosed compound id 2.46808e+06, dosed compound name 14C-Epirubicin, route intravenous, sampling time 0-1 h; conditions: in vivo
[20] = as §3; assay type: ADME, organism-based, SD; parameters: dose 1 mg.Kg-1, dosed compound id 2.46808e+06, dosed compound name 14C-Epirubicin, route intravenous, sampling time 0-2 h; conditions: in vivo
[21] = as §3; assay type: ADME, organism-based, SD; parameters: dose 1 mg.Kg-1, dosed compound id 2.46808e+06, dosed compound name 14C-Epirubicin, route intravenous, sampling time 0-4 h; conditions: in vivo
[22] = as §3; assay type: ADME, organism-based, SD; parameters: dose 1 mg.Kg-1, dosed compound id 2.46808e+06, dosed compound name 14C-Epirubicin, route intravenous, sampling time 0-6 h; conditions: in vivo
[23] = as §3; assay type: ADME, organism-based, SD; parameters: dose 1 mg.Kg-1, dosed compound id 2.46808e+06, dosed compound name 14C-Epirubicin, route intravenous, sampling time 0-8 h; conditions: in vivo
[24] = as §3; assay type: ADME, organism-based, SD; parameters: dose 1 mg.Kg-1, dosed compound id 2.46808e+06, dosed compound name 14C-Epirubicin, route intravenous, sampling time 0-12 h; conditions: in vivo
[25] = as §3; assay type: ADME, organism-based, SD; parameters: dose 1 mg.Kg-1, dosed compound id 2.46808e+06, dosed compound name 14C-Epirubicin, route intravenous, sampling time 0-24 h; conditions: in vivo
[26] = as §3; assay type: ADME, organism-based, SD; parameters: dose 1 mg.Kg-1, dosed compound id 2.46808e+06, dosed compound name 14C-Epirubicin, route intravenous, sampling time 0-48 h; conditions: in vivo
[27] = (§4) Excretory balance of radioactivity in bile following intravenous 14C-epirubicin at 0.45 ug.eq.Kg-1 dose in rat; assay type: ADME, organism-based, SD; parameters: dose 0.45 ug.eq.Kg-1, dosed compound id 2.46808e+06, dosed compound name 14C-Epirubicin, route intravenous, sampling time 0-1 h, study doses 0.45 ug.eq.Kg-1; conditions: in vivo
[28] = as §4; assay type: ADME, organism-based, SD; parameters: dose 0.45 ug.eq.Kg-1, dosed compound id 2.46808e+06, dosed compound name 14C-Epirubicin, route intravenous, sampling time 0-2 h, study doses 0.45 ug.eq.Kg-1; conditions: in vivo
[29] = as §4; assay type: ADME, organism-based, SD; parameters: dose 0.45 ug.eq.Kg-1, dosed compound id 2.46808e+06, dosed compound name 14C-Epirubicin, route intravenous, sampling time 0-4 h, study doses 0.45 ug.eq.Kg-1; conditions: in vivo
[30] = as §4; assay type: ADME, organism-based, SD; parameters: dose 0.45 ug.eq.Kg-1, dosed compound id 2.46808e+06, dosed compound name 14C-Epirubicin, route intravenous, sampling time 0-6 h, study doses 0.45 ug.eq.Kg-1; conditions: in vivo
[31] = as §4; assay type: ADME, organism-based, SD; parameters: dose 0.45 ug.eq.Kg-1, dosed compound id 2.46808e+06, dosed compound name 14C-Epirubicin, route intravenous, sampling time 0-8 h, study doses 0.45 ug.eq.Kg-1; conditions: in vivo
[32] = as §4; assay type: ADME, organism-based, SD; parameters: dose 0.45 ug.eq.Kg-1, dosed compound id 2.46808e+06, dosed compound name 14C-Epirubicin, route intravenous, sampling time 0-24 h, study doses 0.45 ug.eq.Kg-1; conditions: in vivo
[33] = as §4; assay type: ADME, organism-based, SD; parameters: dose 0.45 ug.eq.Kg-1, dosed compound id 2.46808e+06, dosed compound name 14C-Epirubicin, route intravenous, sampling time 0-48 h, study doses 0.45 ug.eq.Kg-1; conditions: in vivo
[34] = (§5) Excretory balance of radioactivity in faeces following intravenous 14C-epirubicin at 0.45 ug.eq.Kg-1 dose in rat; assay type: ADME, organism-based, SD, Feces; parameters: dose 0.45 ug.eq.Kg-1, dosed compound id 2.46808e+06, dosed compound name 14C-Epirubicin, route intravenous, sampling time 0-1 h, study doses 0.45 ug.eq.Kg-1; conditions: in vivo
[35] = as §5; assay type: ADME, organism-based, SD, Feces; parameters: dose 0.45 ug.eq.Kg-1, dosed compound id 2.46808e+06, dosed compound name 14C-Epirubicin, route intravenous, sampling time 0-2 h, study doses 0.45 ug.eq.Kg-1; conditions: in vivo
[36] = as §5; assay type: ADME, organism-based, SD, Feces; parameters: dose 0.45 ug.eq.Kg-1, dosed compound id 2.46808e+06, dosed compound name 14C-Epirubicin, route intravenous, sampling time 0-4 h, study doses 0.45 ug.eq.Kg-1; conditions: in vivo
[37] = as §5; assay type: ADME, organism-based, SD, Feces; parameters: dose 0.45 ug.eq.Kg-1, dosed compound id 2.46808e+06, dosed compound name 14C-Epirubicin, route intravenous, sampling time 0-6 h, study doses 0.45 ug.eq.Kg-1; conditions: in vivo
[38] = as §5; assay type: ADME, organism-based, SD, Feces; parameters: dose 0.45 ug.eq.Kg-1, dosed compound id 2.46808e+06, dosed compound name 14C-Epirubicin, route intravenous, sampling time 0-8 h, study doses 0.45 ug.eq.Kg-1; conditions: in vivo
[39] = as §5; assay type: ADME, organism-based, SD, Feces; parameters: dose 0.45 ug.eq.Kg-1, dosed compound id 2.46808e+06, dosed compound name 14C-Epirubicin, route intravenous, sampling time 0-24 h, study doses 0.45 ug.eq.Kg-1; conditions: in vivo
[40] = as §5; assay type: ADME, organism-based, SD, Feces; parameters: dose 0.45 ug.eq.Kg-1, dosed compound id 2.46808e+06, dosed compound name 14C-Epirubicin, route intravenous, sampling time 0-48 h, study doses 0.45 ug.eq.Kg-1; conditions: in vivo
[41] = (§6) Excretory balance of radioactivity in urine following intravenous 14C-epirubicin at 0.45 ug.eq.Kg-1 dose in rat; assay type: ADME, organism-based, SD; parameters: dose 0.45 ug.eq.Kg-1, dosed compound id 2.46808e+06, dosed compound name 14C-Epirubicin, route intravenous, sampling time 0-1 h, study doses 0.45 ug.eq.Kg-1; conditions: in vivo
[42] = as §6; assay type: ADME, organism-based, SD; parameters: dose 0.45 ug.eq.Kg-1, dosed compound id 2.46808e+06, dosed compound name 14C-Epirubicin, route intravenous, sampling time 0-2 h, study doses 0.45 ug.eq.Kg-1; conditions: in vivo
[43] = as §6; assay type: ADME, organism-based, SD; parameters: dose 0.45 ug.eq.Kg-1, dosed compound id 2.46808e+06, dosed compound name 14C-Epirubicin, route intravenous, sampling time 0-4 h, study doses 0.45 ug.eq.Kg-1; conditions: in vivo
[44] = as §6; assay type: ADME, organism-based, SD; parameters: dose 0.45 ug.eq.Kg-1, dosed compound id 2.46808e+06, dosed compound name 14C-Epirubicin, route intravenous, sampling time 0-6 h, study doses 0.45 ug.eq.Kg-1; conditions: in vivo
[45] = as §6; assay type: ADME, organism-based, SD; parameters: dose 0.45 ug.eq.Kg-1, dosed compound id 2.46808e+06, dosed compound name 14C-Epirubicin, route intravenous, sampling time 0-8 h, study doses 0.45 ug.eq.Kg-1; conditions: in vivo
[46] = as §6; assay type: ADME, organism-based, SD; parameters: dose 0.45 ug.eq.Kg-1, dosed compound id 2.46808e+06, dosed compound name 14C-Epirubicin, route intravenous, sampling time 0-24 h, study doses 0.45 ug.eq.Kg-1; conditions: in vivo

For `COc1cccc2c1C(=O)c1c(O)c3c(c(O)c1C2=O)C[C@@](O)(C(=O)CO)C[C@@H]3O[C@H]1C[C@H](N)[C@@H](O)[C@H](C)O1` [EPIRUBICIN], the WBC_CHANGE [1] was 45%, the Radiolabel recovery [2] was 16% and the Radiolabel recovery [3] was 24%. It also gave a Radiolabel recovery [4] of 13.22%, a Radiolabel recovery [5] of 18.13% and a Radiolabel recovery [6] of 22.93%. For the same compound, the Radiolabel recovery [7] was 25.25%, the Radiolabel recovery [8] was 28.39% and the Radiolabel recovery [9] was 30.19%. For the same compound, the Radiolabel recovery [10] was 38.44%, the Radiolabel recovery [11] was 47.72% and the Radiolabel recovery [12] was “OUTCOME = Observed”. The Radiolabel recovery [13] was “OUTCOME = Observed”, the Radiolabel recovery [14] was “OUTCOME = Observed” and the Radiolabel recovery [15] was 1.18%. The Radiolabel recovery [16] was “OUTCOME = Observed”, the Radiolabel recovery [17] was 1.77% and the Radiolabel recovery [18] was 4.44%. The Radiolabel recovery [19] was “OUTCOME = Observed”, the Radiolabel recovery [20] was “OUTCOME = Observed” and the Radiolabel recovery [21] was “OUTCOME = Observed”. The Radiolabel recovery [22] was 7.31%, the Radiolabel recovery [23] was “OUTCOME = Observed” and the Radiolabel recovery [24] was 8.56%. For the same compound, the Radiolabel recovery [25] was 12%, the Radiolabel recovery [26] was 14.74% and the Radiolabel recovery [27] was 0.06%. For the same compound, the Radiolabel recovery [28] was 0.27%, the Radiolabel recovery [29] was 2.01% and the Radiolabel recovery [30] was 5.17%. The Radiolabel recovery [31] was 7.05%, the Radiolabel recovery [32] was 14.72% and the Radiolabel recovery [33] was 17.32%. For the same compound, the Radiolabel recovery [34] was “OUTCOME = Observed”, the Radiolabel recovery [35] was “OUTCOME = Observed” and the Radiolabel recovery [36] was “OUTCOME = Observed”. The Radiolabel recovery [37] was “OUTCOME = Observed”, the Radiolabel recovery [38] was “OUTCOME = Not detectable” and the Radiolabel recovery [39] was 26%. For the same compound, the Radiolabel recovery [40] was 48.78%, the Radiolabel recovery [41] was “OUTCOME = Observed” and the Radiolabel recovery [42] was “OUTCOME = Observed”. For the same compound, the Radiolabel recovery [43] was “OUTCOME = Observed”, the Radiolabel recovery [44] was “OUTCOME = Observed” and the Radiolabel recovery [45] was 0.54%. It also gave a Radiolabel recovery [46] of 2.14%.

— ChEMBL document CHEMBL3508140 (2016)
